# Experimental data reported in US20070249701A1, “Cyclic amine CCR5 receptor antagonists” (TEIJIN LIMITED, priority 1999, published 2007).
# Biological target: T1, human CCR5 (Homo sapiens, UniProt P51681)
# T1 construct: expressed in transfected cells; host or cells: CHO cells
# Test: Inhibition of binding of [125I]-labeled MIP-1β to membrane fraction of CHO cells expressing human CCR5
# Conditions: at a concentration of 10 μM, [125I]-MIP-1β 0.1 to 0.5 nM, read-out: inhibitory activity against binding of human MIP-1β to the membrane fraction of the cells expressing CCR5, Inhibition(%)
# Description: Measurement of Inhibitory Activity of a Compound Against Binding of [^125I]-Labeled MIP-1β to Membrane Fraction of the Cells Expressing CCR5
# To a 96-well plate made of polystyrene, were respectively added 20 μL of a solution prepared by diluting each test compound with an assay buffer (50 mM HEPES, pH 7.4, 5 mM MgCl2, 1 mM CaCl2, 0.2% BSA), 25 μL of a solution obtained by diluting [^125I]-labeled MIP-1β (NEN Life Science Products, Inc.) with the assay buffer so as to provide 0.1 to 0.5 nM and 155 μL (including 4 μg of the membrane fraction) of a suspension prepared by suspending a membrane fraction of CHO cells expressing human CCR5 (the final volume of the reaction solution: 200 μL). […]
# After completing the reaction, the reaction suspension was filtered through Filtermate (Packard Instrument Co.), and the filter washed with 250 μL of a precooled washing buffer (10 mM HEPES, pH 7.4, 0.5 M NaCl) nine times. […] The radioactivity was counted using TopCount NXT (Packard Instrument Co.).
# The count when 0.2 μM of human MIP-1α instead of the test compound was added was subtracted as nonspecific binding, and the count when the test compound was not added was taken as 100%. Thereby, the inhibitory activity of the test compound against binding of the human MIP-1β to the membrane fraction of the cells expressing CCR5 was calculated. […]
# T1 sequence (P51681 whole entry): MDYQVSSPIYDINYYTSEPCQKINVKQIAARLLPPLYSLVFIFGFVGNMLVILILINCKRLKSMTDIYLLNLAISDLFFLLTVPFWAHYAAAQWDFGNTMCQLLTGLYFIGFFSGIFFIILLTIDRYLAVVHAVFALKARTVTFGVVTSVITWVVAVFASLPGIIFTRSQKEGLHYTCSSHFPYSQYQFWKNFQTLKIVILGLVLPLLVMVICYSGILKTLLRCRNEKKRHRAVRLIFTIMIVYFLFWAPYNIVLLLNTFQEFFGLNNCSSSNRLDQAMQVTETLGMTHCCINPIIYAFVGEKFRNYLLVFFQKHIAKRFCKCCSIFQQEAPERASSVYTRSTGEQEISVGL
compound,measurement,value
"O=C(CNC(=O)c1cccc(SC(F)(F)F)c1)N[C@@H]1CCN(Cc2ccc(Cl)cc2)C1 [Compd. No. 1606, (R)-1-(4-chlorobenzyl)-3-[{N-(3-(trifluoromethylthio)benzoyl)glycyl}amino]pyrrolidine]",inhibition at 10 µM,20 to 50%
